Assay results from the supplement of paper PMC10307832.

Experiments:
Test in all cases: relative viability (nuclei count vs DMSO), 5 days (fraction); higher = more cells survive
[1] = system: NCI-H1355
Outline: (§1)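 Relative viability equals treated-well nuclei counts divided by vehicle-well nuclei counts. Counts came from 4× images of lung cancer cell lines grown in 1536-well plates for 5 days after pin-tool dosing on the day after seeding. Dosing used one drug alone or a fixed anchor-drug dose plus five library-drug doses (not always all listed) in √10 steps, and values are medians of duplicate plates.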

[2] = system: BEN
Outline: as §1

[3] = system: NCI-H441
Outline: as §1

[4] = system: NCI-H1563
Outline: as §1

[5] = system: NCI-H1975
Outline: as §1

[6] = system: NCI-H1437
Outline: as §1

[7] = system: NCI-H1650
Outline: as §1

[8] = system: CAL-12T
Outline: as §1

[9] = system: NCI-H1734
Outline: as §1

[10] = system: HCC-366
Outline: as §1

[11] = system: NCI-H1651
Outline: as §1

[12] = system: EKVX
Outline: as §1

[13] = system: NCI-H2085
Outline: as §1

[14] = system: LU99A
Outline: as §1

[15] = system: NCI-H2023
Outline: as §1

[16] = system: HCC-44
Outline: as §1

[17] = system: NCI-H838
Outline: as §1

[18] = system: NCI-H1755
Outline: as §1

[19] = system: LOU-NH91
Outline: as §1

[20] = system: NCI-H460
Outline: as §1

## O=C(O)c1ccc(-c2c[nH]c3ncc(-c4ccccc4)cc23)cc1C1CCCC1 + CC(C)C[C@H](NC(=O)[C@H](Cc1ccccc1)NC(=O)c1cnccn1)B(O)O [Bortezomib] (partner 0.002 µM)
[1]; first compound 0.04 µM
  relative viability: 1.18
[1]; first compound 0.1265 µM
  relative viability: 1.29
[1]; first compound 0.4 µM
  relative viability: 1.22
[1]; first compound 1.265 µM
  relative viability: 1.04
[2]; first compound 0.04 µM
  relative viability: 0.721
[2]; first compound 0.1265 µM
  relative viability: 0.778
[2]; first compound 0.4 µM
  relative viability: 0.907
[2]; first compound 1.265 µM
  relative viability: 0.796
[3]; first compound 0.04 µM
  relative viability: 0.587
[3]; first compound 0.1265 µM
  relative viability: 0.59
[3]; first compound 0.4 µM
  relative viability: 0.246
[3]; first compound 1.265 µM
  relative viability: 0.289
[4]; first compound 0.04 µM
  relative viability: 0.832
[4]; first compound 0.1265 µM
  relative viability: 0.869
[4]; first compound 0.4 µM
  relative viability: 0.907
[4]; first compound 1.265 µM
  relative viability: 0.931
[5]; first compound 0.04 µM
  relative viability: 0.344
[5]; first compound 0.1265 µM
  relative viability: 0.391
[5]; first compound 0.4 µM
  relative viability: 0.335
[5]; first compound 1.265 µM
  relative viability: 0.195
[6]; first compound 0.04 µM
  relative viability: 0.523
[6]; first compound 0.1265 µM
  relative viability: 0.683
[6]; first compound 0.4 µM
  relative viability: 0.446
[6]; first compound 1.265 µM
  relative viability: 0.238
[7]; first compound 0.04 µM
  relative viability: 0.185
[7]; first compound 0.1265 µM
  relative viability: 0.208
[7]; first compound 0.4 µM
  relative viability: 0.205
[7]; first compound 1.265 µM
  relative viability: 0.178
[8]; first compound 0.04 µM
  relative viability: 0.911
[8]; first compound 0.1265 µM
  relative viability: 1.17
[8]; first compound 0.4 µM
  relative viability: 0.883
[8]; first compound 1.265 µM
  relative viability: 0.792
[9]; first compound 0.04 µM
  relative viability: 1.1
[9]; first compound 0.1265 µM
  relative viability: 1.02
[9]; first compound 0.4 µM
  relative viability: 0.83
[9]; first compound 1.265 µM
  relative viability: 0.785
[10]; first compound 0.04 µM
  relative viability: 1.05
[10]; first compound 0.1265 µM
  relative viability: 1.12
[10]; first compound 0.4 µM
  relative viability: 1.03
[10]; first compound 1.265 µM
  relative viability: 1.06
[11]; first compound 0.04 µM
  relative viability: 0.879
[11]; first compound 0.1265 µM
  relative viability: 0.984
[11]; first compound 0.4 µM
  relative viability: 0.983
[11]; first compound 1.265 µM
  relative viability: 0.855
[12]; first compound 0.04 µM
  relative viability: 1.01
[12]; first compound 0.1265 µM
  relative viability: 0.873
[12]; first compound 0.4 µM
  relative viability: 1.03
[12]; first compound 1.265 µM
  relative viability: 0.728
[13]; first compound 0.04 µM
  relative viability: 1.08
[13]; first compound 0.1265 µM
  relative viability: 1.07
[13]; first compound 0.4 µM
  relative viability: 1.02
[13]; first compound 1.265 µM
  relative viability: 0.896
[14]; first compound 0.04 µM
  relative viability: 1.19
[14]; first compound 0.1265 µM
  relative viability: 1.08
[14]; first compound 0.4 µM
  relative viability: 1.06
[14]; first compound 1.265 µM
  relative viability: 0.816
[15]; first compound 0.04 µM
  relative viability: 1.04
[15]; first compound 0.1265 µM
  relative viability: 1.08
[15]; first compound 0.4 µM
  relative viability: 1.09
[15]; first compound 1.265 µM
  relative viability: 0.699
[16]; first compound 0.04 µM
  relative viability: 0.945
[16]; first compound 0.1265 µM
  relative viability: 0.866
[16]; first compound 0.4 µM
  relative viability: 0.886
[16]; first compound 1.265 µM
  relative viability: 0.908
[17]; first compound 0.04 µM
  relative viability: 0.814
[17]; first compound 0.1265 µM
  relative viability: 1.32
[17]; first compound 0.4 µM
  relative viability: 0.703
[17]; first compound 1.265 µM
  relative viability: 0.714
[18]; first compound 0.04 µM
  relative viability: 1.01
[18]; first compound 0.1265 µM
  relative viability: 0.732
[18]; first compound 0.4 µM
  relative viability: 0.997
[18]; first compound 1.265 µM
  relative viability: 0.924
[19]; first compound 0.04 µM
  relative viability: 0.484
[19]; first compound 0.1265 µM
  relative viability: 0.558
[19]; first compound 0.4 µM
  relative viability: 0.449
[19]; first compound 1.265 µM
  relative viability: 0.396
[20]; first compound 0.04 µM
  relative viability: 1.07
[20]; first compound 0.1265 µM
  relative viability: 1.4
[20]; first compound 0.4 µM
  relative viability: 0.999
[20]; first compound 1.265 µM
  relative viability: 0.939
